Measurements: ChEMBL document CHEMBL5370646, “Synthesis and Conformational Analysis of FR901464-Based RNA Splicing Modulators and Their Synergism in Drug-Resistant Cancers” (J Med Chem, 2023)

Assays:
A549 = assay: Growth inhibition of human A549 cells assessed as reduction in cell viability incubated for 72 hrs; assay type: functional
DMS-53 [1] = assay: Growth inhibition of human DMS-53 cells assessed as reduction in cell viability incubated for 72 hrs; assay type: functional
[2] = Growth inhibition of mouse FL83B cells assessed as reduction in cell viability incubated for 72 hrs; assay type: toxicity, cell-based
HCT-116 = assay: Modulation of RNA splicing in human HCT-116 cells assessed as decrease in MCL-1S expression by Western blot analysis; assay type: functional, cell-based; conditions: dose 3-100 nM
[3] = Metabolic stability in CD1 mouse plasma assessed as half life measured after 48 hrs by LC-MS analysis; assay type: ADME, cell-free
DMS-114 [4] = assay: Synergistic antiproliferative activity against human DMS-114 cells assessed as combination index at 3 nM incubated for 72 hrs in presence of 3.6 uM venetoclax by WST-1 assay; assay type: functional
DMS-114 [5] = assay: Synergistic antiproliferative activity against human DMS-114 cells assessed as combination index at 1 nM incubated for 72 hrs in presence of 3.6 uM venetoclax by WST-1 assay; assay type: functional
DMS-114 [6] = assay: Synergistic antiproliferative activity against human DMS-114 cells assessed as combination index at 1 nM incubated for 72 hrs in presence of 6 uM venetoclax by WST-1 assay; assay type: functional
DMS-114 [7] = assay: Synergistic antiproliferative activity against human DMS-114 cells assessed as combination index at 2 nM incubated for 72 hrs in presence of 2.4 uM venetoclax by WST-1 assay; assay type: functional
DMS-114 [8] = assay: Synergistic antiproliferative activity against human DMS-114 cells assessed as combination index at 2 nM incubated for 72 hrs in presence of 6 uM venetoclax by WST-1 assay; assay type: functional
DMS-114 [9] = assay: Synergistic antiproliferative activity against human DMS-114 cells assessed as combination index at 2 nM incubated for 72 hrs in presence of 12 uM venetoclax by WST-1 assay; assay type: functional
DMS-114 [10] = assay: Synergistic antiproliferative activity against human DMS-114 cells assessed as combination index at 3 nM incubated for 72 hrs in presence of 2.4 uM venetoclax by WST-1 assay; assay type: functional
DMS-114 [11] = assay: Synergistic antiproliferative activity against human DMS-114 cells assessed as combination index at 3 nM incubated for 72 hrs in presence of 6 uM venetoclax by WST-1 assay; assay type: functional
DMS-53 [12] = assay: Synergistic antiproliferative activity against human DMS-53 cells assessed as combination index at 0.5 nM incubated for 72 hrs in presence of 25 uM venetoclax by WST-1 assay; assay type: functional
DMS-53 [13] = assay: Synergistic antiproliferative activity against human DMS-53 cells assessed as combination index at 0.5 nM incubated for 72 hrs in presence of […] venetoclax by WST-1 assay; assay type: functional
DMS-53 [14] = assay: Synergistic antiproliferative activity against human DMS-53 cells assessed as combination index at 0.5 nM incubated for 72 hrs in presence of […] venetoclax by WST-1 assay; assay type: functional
DMS-53 [15] = assay: Synergistic antiproliferative activity against human DMS-53 cells assessed as combination index at 1 nM incubated for 72 hrs in presence of […] venetoclax by WST-1 assay; assay type: functional
DMS-53 [16] = assay: Synergistic antiproliferative activity against human DMS-53 cells assessed as combination index at 1.5 nM incubated for 72 hrs in presence of […] venetoclax by WST-1 assay; assay type: functional
DMS-53 [17] = assay: Synergistic antiproliferative activity against human DMS-53 cells assessed as combination index at 2 nM incubated for 72 hrs in presence of 50 […] by WST-1 assay; assay type: functional
DMS-53 [18] = assay: Synergistic antiproliferative activity against human DMS-53 cells assessed as combination index at 2 nM incubated for 72 hrs in presence of 400 […] by WST-1 assay; assay type: functional
[19] = Synergistic antiproliferative activity against human Osimertinib-resistant HCC827AR cell assessed as combination index at 1 nM incubated for 72 hrs in presence of 0.25 uM osimertinib by WST-1 assay; assay type: functional
[20] = Synergistic antiproliferative activity against human Osimertinib-resistant HCC827AR cell assessed as combination index at 1 nM incubated for 72 hrs in presence of 0.50 uM osimertinib by WST-1 assay; assay type: functional
[21] = Synergistic antiproliferative activity against human Osimertinib-resistant HCC827AR cell assessed as combination index at 1 nM incubated for 72 hrs in presence of 2 uM osimertinib by WST-1 assay; assay type: functional
[22] = Synergistic antiproliferative activity against human Osimertinib-resistant HCC827AR cell assessed as combination index at 1 nM incubated for 72 hrs in presence of 4 uM osimertinib by WST-1 assay; assay type: functional
[23] = Synergistic antiproliferative activity against human Osimertinib-resistant HCC827AR cell assessed as combination index at 1.5 nM incubated for 72 hrs in presence of 0.50 uM osimertinib by WST-1 assay; assay type: functional
[24] = Synergistic antiproliferative activity against human Osimertinib-resistant HCC827AR cell assessed as combination index at 1.5 nM incubated for 72 hrs in presence of 1 uM osimertinib by WST-1 assay; assay type: functional
[25] = Synergistic antiproliferative activity against human Osimertinib-resistant HCC827AR cell assessed as combination index at 2 nM incubated for 72 hrs in presence of 1 uM osimertinib by WST-1 assay; assay type: functional
[26] = Synergistic antiproliferative activity against human Osimertinib-resistant HCC827AR cell assessed as combination index at 2 nM incubated for 72 hrs in presence of 4 uM osimertinib by WST-1 assay; assay type: functional
[27] = Synergistic antiproliferative activity against human Osimertinib-resistant HCC827AR cell assessed as combination index at 2.5 nM incubated for 72 hrs in presence of 0.50 uM osimertinib by WST-1 assay; assay type: functional
[28] = Synergistic antiproliferative activity against human Osimertinib-resistant HCC827AR cell assessed as combination index at 2.5 nM incubated for 72 hrs in presence of 1 uM osimertinib by WST-1 assay; assay type: functional
[29] = Synergistic antiproliferative activity against human Osimertinib-resistant HCC827AR cell assessed as combination index at 2.5 nM incubated for 72 hrs in presence of 4 uM osimertinib by WST-1 assay; assay type: functional

- GI50 (A549): 3.9 nM
- half-life [3]: 13 h
Compound: COCO[C@@H](C)/C=C\C(=O)N[C@@H]1C[C@H](C)[C@H](C/C=C(C)/C=C/[C@H]2OC(C)(C)C[C@@]3(CO3)[C@@H]2O)O[C@@H]1C
- GI50 (DMS-53 [1]): 2.7 nM
- GI50 at 72 h [2]: 5.7 nM
- Activity (HCT-116): Dose-Dependent Effect
- CI (DMS-114 [4]): 0.23
- CI (DMS-114 [5]): 1.34
- CI (DMS-114 [6]): 1.46
- CI (DMS-114 [7]): 0.69
- CI (DMS-114 [8]): 0.67
- CI (DMS-114 [9]): 0.44
- CI (DMS-114 [10]): 0.21
- CI (DMS-114 [11]): 0.2
- CI (DMS-53 [12]): 1.33
- CI (DMS-53 [13]): 1.35
- CI (DMS-53 [14]): 1.6
- CI (DMS-53 [15]): 0.91
- CI (DMS-53 [16]): 0.72
- CI (DMS-53 [17]): 0.47
- CI (DMS-53 [18]): 0.33
- CI [19]: 1.06
- CI [20]: 1.42
- CI [21]: 1.37
- CI [22]: 0.93
- CI [23]: 1.28
- CI [24]: 1.5
- CI [25]: 1.2
- CI [26]: 0.87
- CI [27]: 0.99
- CI [28]: 1.04
- CI [29]: 0.83
